Experimental data reported in the supplement of paper PMC10307832.

Tests used:
Assay in all cases: relative viability (nuclei count vs DMSO), 5 days (fraction); higher = more cells survive
Sorafenib + Navitoclax = compound: CNC(=O)c1cc(Oc2ccc(NC(=O)Nc3ccc(Cl)c(C(F)(F)F)c3)cc2)ccn1 [Sorafenib] + CC1(C)CCC(c2ccc(Cl)cc2)=C(CN2CCN(c3ccc(C(=O)NS(=O)(=O)c4ccc(N[C@H](CCN5CCOCC5)CSc5ccccc5)c(S(=O)(=O)C(F)(F)F)c4)cc3)CC2)C1 [Navitoclax] (partner 0.5 µM)
Method in brief: (§1)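 Relative viability divides the nuclei count in treated wells by that in vehicle wells. Lung cancer cell lines were seeded in 1536-well plates, dosed by pin tool the next day, and fixed and stained after 5 days in one step with final 0.05% Triton X-100, 1% formaldehyde and 1 ug/ml Hoechst. Dosing was a single drug or a fixed anchor-drug dose plus five library-drug doses (not always all listed) in √10 steps, and values are medians of duplicate plates imaged at 4×.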

Sorafenib + Crizotinib = compound: CNC(=O)c1cc(Oc2ccc(NC(=O)Nc3ccc(Cl)c(C(F)(F)F)c3)cc2)ccn1 [Sorafenib] + C[C@@H](Oc1cc(-c2cnn(C3CCNCC3)c2)cnc1N)c1c(Cl)ccc(F)c1Cl [Crizotinib] (partner 1 µM)
Method in brief: as §1

Sorafenib + Trametinib = compound: CNC(=O)c1cc(Oc2ccc(NC(=O)Nc3ccc(Cl)c(C(F)(F)F)c3)cc2)ccn1 [Sorafenib] + CC(=O)Nc1cccc(-n2c(=O)n(C3CC3)c(=O)c3c(Nc4ccc(I)cc4F)n(C)c(=O)c(C)c32)c1 [Trametinib] (partner 0.02 µM)
Method in brief: as §1

Sorafenib + Luminespib = compound: CNC(=O)c1cc(Oc2ccc(NC(=O)Nc3ccc(Cl)c(C(F)(F)F)c3)cc2)ccn1 [Sorafenib] + CCNC(=O)c1noc(-c2cc(C(C)C)c(O)cc2O)c1-c1ccc(CN2CCOCC2)cc1 [Luminespib] (partner 0.01 µM)
Method in brief: as §1

Sorafenib + Pictilisib = compound: CNC(=O)c1cc(Oc2ccc(NC(=O)Nc3ccc(Cl)c(C(F)(F)F)c3)cc2)ccn1 [Sorafenib] + CS(=O)(=O)N1CCN(Cc2cc3nc(-c4cccc5[nH]ncc45)nc(N4CCOCC4)c3s2)CC1 [Pictilisib] (partner 1 µM)
Method in brief: as §1

Cell Line	relative viability (Sorafenib + Navitoclax; first compound 0.08 µM)	relative viability (Sorafenib + Navitoclax; first compound 0.253 µM)	relative viability (Sorafenib + Navitoclax; first compound 2.53 µM)	relative viability (Sorafenib + Navitoclax; first compound 8 µM)	relative viability (Sorafenib + Crizotinib; first compound 0.08 µM)	relative viability (Sorafenib + Crizotinib; first compound 0.253 µM)	relative viability (Sorafenib + Crizotinib; first compound 2.53 µM)	relative viability (Sorafenib + Crizotinib; first compound 8 µM)	relative viability (Sorafenib + Trametinib; first compound 0.08 µM)	relative viability (Sorafenib + Trametinib; first compound 0.253 µM)	relative viability (Sorafenib + Trametinib; first compound 2.53 µM)	relative viability (Sorafenib + Trametinib; first compound 8 µM)	relative viability (Sorafenib + Luminespib; first compound 0.08 µM)	relative viability (Sorafenib + Luminespib; first compound 0.253 µM)	relative viability (Sorafenib + Luminespib; first compound 8 µM)	relative viability (Sorafenib + Pictilisib; first compound 0.08 µM)	relative viability (Sorafenib + Pictilisib; first compound 0.253 µM)	relative viability (Sorafenib + Pictilisib; first compound 2.53 µM)	relative viability (Sorafenib + Pictilisib; first compound 8 µM)	relative viability (Sorafenib + Luminespib; first compound 2.53 µM)
201T	1.19	1.24	1.27	1.18	1.03	1.01	1.13	1.08	0.679	0.726	0.735	0.762	1.06	1.12	1.04	0.684	0.669	0.72	0.65	–
A-427	0.946	0.917	0.985	0.563	0.895	0.855	0.826	0.369	0.731	0.754	0.551	0.383	0.971	0.951	0.831	0.771	0.669	0.768	0.376	0.757
ABC-1	–	–	–	–	1.4	1.07	–	1.04	–	–	–	–	0.815	0.378	0.158	0.78	0.713	1.02	0.332	0.538
BEN	0.09	0.0558	0.0776	0.0641	1	0.844	0.862	0.68	1.11	0.911	0.945	0.913	0.439	0.173	0.0694	0.649	0.512	0.531	0.413	0.2
CAL-12T	1.32	1.19	1.06	0.64	0.751	0.581	0.524	0.381	0.5	0.312	0.339	0.213	0.14	0.363	0.147	0.6	0.396	0.575	0.396	0.347
COR-L23	1.03	0.898	1.1	0.485	0.902	0.609	0.657	0.551	0.645	0.433	0.312	0.232	0.731	0.688	0.135	0.952	0.881	0.745	0.676	0.525
COR-L 105	0.792	0.821	0.89	0.865	0.874	0.73	0.839	0.855	0.51	0.472	0.432	0.378	1	–	0.623	0.413	0.487	0.476	0.329	1.05
ChaGo-K-1	1.23	0.866	1.11	0.576	1.22	1.09	1.07	–	0.884	0.855	0.886	0.708	0.708	0.446	0.325	0.939	0.592	0.794	0.399	0.606
